The target in this series is T1, GPR39 (Homo sapiens, UniProt O43194).
T1 sequence (O43194 1-453): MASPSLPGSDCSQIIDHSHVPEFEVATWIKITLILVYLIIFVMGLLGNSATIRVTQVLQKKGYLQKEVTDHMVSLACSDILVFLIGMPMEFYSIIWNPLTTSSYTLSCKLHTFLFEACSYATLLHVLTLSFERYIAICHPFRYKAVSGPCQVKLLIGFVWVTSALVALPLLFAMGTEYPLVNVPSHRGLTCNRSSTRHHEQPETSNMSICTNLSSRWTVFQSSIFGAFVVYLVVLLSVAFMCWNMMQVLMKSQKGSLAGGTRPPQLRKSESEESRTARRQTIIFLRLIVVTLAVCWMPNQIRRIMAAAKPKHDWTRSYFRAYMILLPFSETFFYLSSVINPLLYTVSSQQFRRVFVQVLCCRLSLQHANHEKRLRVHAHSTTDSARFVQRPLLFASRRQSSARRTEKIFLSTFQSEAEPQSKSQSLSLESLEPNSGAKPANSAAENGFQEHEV
Kind of series: luciferase assay system (SRE luciferase reporter gene, CV-1 cells expressing GPR39). In kind it is cell-based. The arrangement: expressed in transfected cells; host or cells: CV-1 fibroblast cell line (Korea Cell Line Bank), adenoviral transduction at 50 MOI. On the technique in general: A reporter such as luciferase makes a cellular process visible.

Molecules are shown by their SMILES.

Take `CCCCCCCC(=O)NCCCC[C@H](NC(=O)[C@@H](N)Cc1cn(C(c2ccccc2)c2ccccc2)cn1)C(=O)N[C@H](Cc1ccc(C)cc1)C(=O)N[C@@H](Cc1ccc(O)cc1)C(=O)O` [HKFY-34, ((R)-2-((S)-2-((S)-2-amino-3-(1-benzhydryl-1H-imidazol-4-yl)propanamido)-6-octanamidohexanamido)-3-(p-tolyl)propanoyl)-L-tyrosine]: the “ECmax (−fold induction over basal)” value was determined as 22.39 ± 4.59 fold induction over basal and the “Reporter gene assay ECmax (−fold induction over basal)” value was 22.39 ± 4.59 fold induction over basal. Moreover, the “activity level for GPR39 (in words)” value (comment on Table 3) was “higher activity level than other HKFY derivatives”. Besides, the “activity and ECmax value for GPR39 (in words)” value (comment on Table 3, derivatives composed of d-Phe(methyl)) was “most excellent activity and high ECmax value”.

The values are drawn from patent US20250340591A1, “COMPOSITION FOR PREVENTING OR TREATING INFLAMMATORY BOWEL DISEASE CONTAINING NOVEL COMPOUND” (ANYGEN CO., LTD., priority 2021, published 2025).
